Experiments:
ears of mice = experiment: Toxicity on application to ears of mice; assay type: in vivo; settings: 5 mg/ear, 10 times the effective concentration
[1] = test system: TPA induced edematization in ears; experiment: Ear edema induction test with TPA (12-O-tetradecanoylphorbol-13-acetate); assay type: in vivo, ICR male mouse; settings: 0.5 mg/ear; for Rate of inhibition (%): 4 h after TPA, relative to rate of edematization of control group taken as 100; for Rate of edematization (%): both sides of right ear, 4 h after TPA (10 μl of 40 μg/ml), control group 161.1
Experimental: Four hours after the application of TPA, the center of right and left ears was cut out with a punch with a diameter of 6.5 mm to measure the weights. The rate of edematization of ears was calculated according to the following formula: [formula] The rate of edema enlargement inhibition was determined taking the rate of edematization of the control group to which no compound was applied as 100.

5-lipoxygenase [2] = experiment: 5-Lipoxygenase inhibiting activity (5-HETE production); assay type: biochemical, rat; settings: RBL-1 5-lipoxygenase; 5-HETE by HPLC; values only in FIG. 1
Experimental: A sample of 5-lipoxygenase was prepared from basophilic leukemia cells of rat (RBL-1). First, the RBL-1 was cultured in an MEM medium (manufactured by Nissui Pharmaceutical Co.) containing 0.0292% of L-glutamine and 10% of FCS under conditions of 5% CO2 and at 37° C. for 3 days. After culture, the cells were collected by centrifuge (1000 rpm, 10 min., 4° C.) and washed twice with Dulbeccol's PBS (-) (manufactured by Nissui Pharmaceutical Co.) . The cells were suspended in 50 ml of Tris-HCl buffer (pH 7.4) at a concentration of 7.5×10^7 cells/ml. The cell suspension was ultrasonically treated in an ice bath and centrifuged (1300 rpm, 30 min., 4° C.) to obtain a 5- lipoxygenase sample as supernatant.
76 μl of 50 mM Tris-HCl buffer (pH 7.4) containing 2.56 mM of CaCl2 and 2.56 mM of ATP and 20 μl of 5-lipoxygenase sample prepared above were added to 2μl of a solution containing a prescribed amount of the diarylheptanoide derivative (1) prepared in Example 1 in DSMO. The mixture was incubated at 37° C. […] The amount of 5-HETE in the supernatant was measured by HPLC (column: Nova-pak 5C18; eluant: a 60:40 acetonitrile:0.05 M KH2 PO4 solution with 5 mM trihexyl bromide added; flow rate: 0.8 ml/min.; wavelength: 235 nm). The amount of 5-HETE produced was calculated from the peak area of the 5-HETE. […]

5-lipoxygenase [3] = settings: background, as reported; cited from earlier work

Row | SMILES | toxicity (in words) (ears of mice) | effect compared with comparative compound (6) (in words) [1] | effect for inhibiting TPA induced edematization in ears (in words) [1] | Rate of inhibition (%) [1] [%] | Rate of edematization (%) [1] [%] | 5-lipoxygenase inhibiting effect (in words) (5-lipoxygenase [2]) | 5-lipoxygenase inhibiting activity (in words) (5-lipoxygenase [3])
1 | COc1cc(C=CC(=O)CCCCc2ccccc2)cc(OC)c1O [Compound (1), 1-(3,5-dimethoxy-4-hydroxyphenyl)-7-phenyl-1-heptene-3-one] | No toxicity was exhibited | stronger than that of the comparative compound | strong effect for inhibiting TPA induced edematization in ears | 96.1 | 6.3 | strong 5-lipoxygenase inhibiting effect | –
2 | COc1cc(CCC(=O)CCCCc2ccccc2)ccc1O [Yakuchinone-A] | – | – | – | – | – | – | exhibiting a 5-lipoxygenase inhibiting activity
3 | O=C(C=Cc1ccc(O)c(O)c1)CCCCc1ccccc1 [(6), 1-(3,4-dihydroxyphenyl)-7-phenyl-1-heptene-3-one, reference compound] | – | – | – | 84.5 | 24.9 | – | most strong 5-lipoxygenase inhibiting action
4 | COc1cc(/C=C/C(=O)CCCCc2ccccc2)ccc1O [Yakuchinone-B] | – | – | – | – | – | – | exhibiting a 5-lipoxygenase inhibiting activity

Source: patent publication US5763673A, “Diarylheptanoide derivative and pharmaceutical composition comprising the same” (Kabushiki Kaisha Yakult Honsha, priority 1994, dated 1998)
